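Interpolation was linear, between the two tested concentrations surrounding the appropriate level; five concentrations were tested over 48 hours in 96-well plates. TGI: concentration producing complete growth inhibition.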
Experiments:
Assay in all cases: DTP human tumour cell line panel, 48 h
RPMI-8226 leukemia = test system: RPMI-8226 leukemia
IGROV1 ovarian = test system: IGROV1 ovarian
LOX IMVI melanoma = test system: LOX IMVI melanoma
HL-60(TB) leukemia = test system: HL-60(TB) leukemia
OVCAR-3 ovarian = test system: OVCAR-3 ovarian
HT29 colon = test system: HT29 colon
A549 NSCLC = test system: A549 NSCLC
OVCAR-5 ovarian = test system: OVCAR-5 ovarian
SK-MEL-5 melanoma = test system: SK-MEL-5 melanoma
SNB-75 CNS = test system: SNB-75 CNS
EKVX NSCLC = test system: EKVX NSCLC
SF-539 CNS = test system: SF-539 CNS
SK-MEL-2 melanoma = test system: SK-MEL-2 melanoma
MOLT-4 leukemia = test system: MOLT-4 leukemia
HCT-15 colon = test system: HCT-15 colon
OVCAR-8 ovarian = test system: OVCAR-8 ovarian
UO-31 renal = test system: UO-31 renal
M14 melanoma = test system: M14 melanoma
COLO 205 colon = test system: COLO 205 colon
HOP-92 NSCLC = test system: HOP-92 NSCLC

| SMILES | TGI (RPMI-8226 leukemia) [µM] | TGI (IGROV1 ovarian) [µM] | TGI (LOX IMVI melanoma) [µM] | TGI (HL-60(TB) leukemia) [µM] | TGI (OVCAR-3 ovarian) [µM] | TGI (HT29 colon) [µM] | TGI (A549 NSCLC) [µM] | TGI (OVCAR-5 ovarian) [µM] | TGI (SK-MEL-5 melanoma) [µM] | TGI (SNB-75 CNS) [µM] | TGI (EKVX NSCLC) [µM] | TGI (SF-539 CNS) [µM] | TGI (SK-MEL-2 melanoma) [µM] | TGI (MOLT-4 leukemia) [µM] | TGI (HCT-15 colon) [µM] | TGI (OVCAR-8 ovarian) [µM] | TGI (UO-31 renal) [µM] | TGI (M14 melanoma) [µM] | TGI (COLO 205 colon) [µM] | TGI (HOP-92 NSCLC) [µM] |
| --- | --- | --- | --- | --- | --- | --- | --- | --- | --- | --- | --- | --- | --- | --- | --- | --- | --- | --- | --- | --- |
| CCN(CCO)C(=O)C1(c2ccccc2)CCCCC1 | > 10 | > 10 | > 10 | > 10 | > 10 | > 10 | > 10 | > 10 | > 10 | > 10 | > 10 | > 10 | > 10 | > 10 | > 10 | > 10 | > 10 | > 10 | > 10 | – |
| COc1ccc(CC2CCc3nc(N)nc(N)c3C2)cc1OC (configuration not stated) | > 100 | > 64 | 21.1 | > 100 | > 100 | > 24.5 | > 53.1 | > 100 | 18.5 | > 100 | > 91.2 | > 40.5 | > 91.6 | > 100 | 98 | > 62.5 | > 100 | > 39.5 | 36 | > 100 |
| CCCCC(=O)c1ccc2ccccc2c1O | > 100 | > 100 | > 100 | > 100 | – | > 100 | – | – | > 100 | > 100 | > 100 | > 100 | > 100 | > 100 | > 100 | > 100 | > 100 | > 100 | > 100 | > 100 |
| CC(CCC(=O)O)(c1ccc(O)cc1)c1ccc(O)cc1 | – | > 100 | > 100 | – | > 100 | > 100 | > 100 | > 100 | > 100 | – | > 100 | – | > 100 | > 100 | > 100 | > 100 | > 100 | > 100 | – | > 100 |
| CCOC(=O)NC(=O)c1cn(CCNCCO)c(=O)[nH]c1=O | > 100 | > 100 | > 100 | > 100 | > 100 | > 100 | > 100 | > 100 | > 100 | > 100 | > 100 | > 100 | > 100 | > 100 | > 100 | > 100 | – | > 100 | > 100 | > 100 |
| CN1CCN(c2ccc3[nH]c(-c4cc(O)c5c(nc(CO)n5C)c4O)nc3n2)CC1 | > 100 | > 100 | 37.9 | 47.2 | > 100 | > 100 | > 100 | > 100 | – | > 100 | 85.8 | 44 | 51.7 | 48.2 | > 100 | > 100 | > 100 | > 100 | 43.3 | > 100 |
| O=C(N/N=C/C=C/c1ccccc1)[C@H](O)[C@@H](O)C(=O)N/N=C/C=C/c1ccccc1 | > 100 | > 100 | > 100 | > 100 | – | – | > 100 | > 100 | > 100 | – | > 100 | > 100 | > 100 | > 100 | > 100 | > 100 | > 100 | – | > 100 | – |
| [Cl-].[Rh+3].c1cnc2c(c1)ccc1cccnc12.c1cnc2c(c1)ccc1cccnc12.c1cnc2c(c1)ccc1cccnc12 | – | > 100 | > 100 | > 100 | > 100 | > 100 | > 100 | > 100 | > 100 | > 100 | > 100 | > 100 | > 100 | > 100 | > 100 | > 100 | > 100 | 29 | – | > 100 |
